# Results reported in ChEMBL document CHEMBL3286349 (Bioorg Med Chem Lett, 2014).
# Calls of active or inactive are those of the source. The calls are words filed in the database; no cut-off is given here. Residues, ends and D or L forms follow the SMILES beside them.
# Tests used:
# [1] = biological target: T1, Peroxisome proliferator-activated receptor alpha (Rattus norvegicus) (UniProt P37230); experiment: Agonist activity at PPARalpha in lipid loaded rat HII4E cells assessed as induction of fatty acid uptake at 1 uM after 24 hrs by flow cytometry analysis relative to control; format: cell-based
# T1 sequence (whole entry): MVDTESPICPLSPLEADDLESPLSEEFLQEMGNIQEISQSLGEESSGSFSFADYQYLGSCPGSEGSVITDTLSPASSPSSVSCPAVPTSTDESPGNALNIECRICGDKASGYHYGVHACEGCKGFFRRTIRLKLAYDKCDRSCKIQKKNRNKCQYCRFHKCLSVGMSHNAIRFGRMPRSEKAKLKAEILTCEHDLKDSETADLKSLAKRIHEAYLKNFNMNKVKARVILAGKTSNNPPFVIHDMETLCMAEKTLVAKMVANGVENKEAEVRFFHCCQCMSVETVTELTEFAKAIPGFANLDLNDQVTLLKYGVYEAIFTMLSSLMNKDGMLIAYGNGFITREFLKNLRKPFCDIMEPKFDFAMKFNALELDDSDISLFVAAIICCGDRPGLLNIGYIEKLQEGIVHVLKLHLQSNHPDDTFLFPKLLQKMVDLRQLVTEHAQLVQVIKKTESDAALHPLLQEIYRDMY
# [2] = biological target: T1, Peroxisome proliferator-activated receptor alpha (Rattus norvegicus); experiment: Agonist activity at PPARalpha in lipid loaded rat HII4E cells assessed as reduction of intracellular cholesterol level after 24 hrs; format: cell-based
# [3] = biological target: T1, Peroxisome proliferator-activated receptor alpha (Rattus norvegicus); experiment: Agonist activity at PPARalpha in lipid loaded rat HII4E cells assessed as reduction of intracellular cholesterol level at 100 uM after 24 hrs relative to control; format: cell-based; parameters: scale not given: the % may be the effect or the level left
# [4] = biological target: T1, Peroxisome proliferator-activated receptor alpha (Rattus norvegicus); experiment: Agonist activity at PPARalpha in lipid loaded rat HII4E cells assessed as reduction of intracellular cholesterol level at 500 uM after 24 hrs relative to control; format: cell-based; parameters: scale not given: the % may be the effect or the level left
# [5] = biological target: T1, Peroxisome proliferator-activated receptor alpha (Rattus norvegicus); experiment: Agonist activity at PPARalpha in lipid loaded rat HII4E cells assessed as reduction of intracellular triglyceride level at 100 uM after 24 hrs relative to control; format: cell-based; parameters: scale not given: the % may be the effect or the level left
# [6] = biological target: T1, Peroxisome proliferator-activated receptor alpha (Rattus norvegicus); experiment: Agonist activity at PPARalpha in lipid loaded rat HII4E cells assessed as reduction of intracellular triglyceride level at 500 uM after 24 hrs relative to control; format: cell-based; parameters: scale not given: the % may be the effect or the level left
# [7] = Reduction of intracellular cholesterol level in lipid loaded rat HII4E cells expressing PPARalpha siRNA at 10 to 500 uM after 24 hrs; format: functional, cell-based
# [8] = Reduction of intracellular triglyceride level in lipid loaded rat HII4E cells expressing PPARalpha siRNA at 10 to 500 uM after 24 hrs; format: functional, cell-based
# [9] = Reduction of intracellular cholesterol level in lipid loaded rat HII4E cells expressing PPARgamma siRNA after 24 hrs; format: functional, cell-based
# [10] = Reduction of intracellular triglyceride level in lipid loaded rat HII4E cells expressing PPARgamma siRNA after 24 hrs; format: functional, cell-based
# [11] = biological target: T2, Peroxisome proliferator-activated receptor alpha (Homo sapiens) (UniProt Q07869); experiment: Agonist activity at PPARalpha (unknown origin) expressed in CHOK1 cells assessed as induction of transactivation activity at 100 uM after 24 hrs by luciferase reporter gene assay relative to control; format: cell-based; settings: CHO-K1
# T2 sequence (whole entry): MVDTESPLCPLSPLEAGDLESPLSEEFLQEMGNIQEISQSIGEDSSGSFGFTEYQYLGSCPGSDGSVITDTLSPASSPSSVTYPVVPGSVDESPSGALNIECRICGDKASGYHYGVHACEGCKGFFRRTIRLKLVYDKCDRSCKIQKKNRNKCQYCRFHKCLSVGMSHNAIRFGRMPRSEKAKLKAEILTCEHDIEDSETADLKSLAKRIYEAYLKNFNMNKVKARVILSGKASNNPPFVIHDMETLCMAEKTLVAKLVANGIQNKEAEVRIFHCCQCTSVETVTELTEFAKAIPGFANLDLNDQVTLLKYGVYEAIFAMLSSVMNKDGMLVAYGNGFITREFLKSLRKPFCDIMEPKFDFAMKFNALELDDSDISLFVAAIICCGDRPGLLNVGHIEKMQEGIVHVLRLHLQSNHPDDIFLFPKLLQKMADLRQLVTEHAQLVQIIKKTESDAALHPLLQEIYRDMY
# [12] = biological target: T2, Peroxisome proliferator-activated receptor alpha (Homo sapiens); experiment: Agonist activity at PPARalpha (unknown origin) expressed in CHOK1 cells assessed as induction of transactivation activity at 500 uM after 24 hrs by luciferase reporter gene assay relative to control; format: cell-based; settings: CHO-K1
# [13] = biological target: T3, Peroxisome proliferator-activated receptor alpha (Homo sapiens, UniProt Q07869); experiment: Agonist activity at PPARalpha LBD (unknown origin) assessed as induction of PGC1alpha co-activator activity by TR-FRET analysis
# T3 sequence (Q07869 whole entry): T2 sequence (whole entry)
# [14] = biological target: T3, Peroxisome proliferator-activated receptor alpha; experiment: Binding affinity to PPARalpha LBD (unknown origin) by surface plasmon resonance assay
# [15] = biological target: T1, Peroxisome proliferator-activated receptor alpha (Rattus norvegicus); experiment: Agonist activity at PPARalpha in lipid loaded rat HII4E cells assessed as induction of transcriptional activity at 100 uM after 24 hrs by qPCR analysis relative to control; format: cell-based
# [16] = biological target: T1, Peroxisome proliferator-activated receptor alpha (Rattus norvegicus); experiment: Agonist activity at PPARalpha in lipid loaded rat HII4E cells assessed as induction of transcriptional activity at 500 uM after 24 hrs by qPCR analysis relative to control; format: cell-based
# [17] = biological target: T1, Peroxisome proliferator-activated receptor alpha (Rattus norvegicus); experiment: Agonist activity at PPARalpha in lipid loaded rat HII4E cells assessed as increase of FATP4 gene expression at 100 uM after 24 hrs by qPCR analysis relative to control; format: cell-based
# [18] = biological target: T1, Peroxisome proliferator-activated receptor alpha (Rattus norvegicus); experiment: Agonist activity at PPARalpha in lipid loaded rat HII4E cells assessed as increase of FATP4 gene expression at 500 uM after 24 hrs by qPCR analysis relative to control; format: cell-based
# [19] = biological target: T1, Peroxisome proliferator-activated receptor alpha (Rattus norvegicus); experiment: Agonist activity at PPARalpha in lipid loaded rat HII4E cells assessed as increase of acyl-CoA synthetase gene expression at 100 uM after 24 hrs by qPCR analysis relative to control; format: cell-based
# [20] = biological target: T1, Peroxisome proliferator-activated receptor alpha (Rattus norvegicus); experiment: Agonist activity at PPARalpha in lipid loaded rat HII4E cells assessed as increase of acyl-CoA synthetase gene expression at 500 uM after 24 hrs by qPCR analysis relative to control; format: cell-based
# [21] = biological target: T1, Peroxisome proliferator-activated receptor alpha (Rattus norvegicus); experiment: Agonist activity at PPARalpha in lipid loaded rat HII4E cells assessed as increase of CPT1 gene expression at 500 uM after 24 hrs by qPCR analysis relative to control; format: cell-based
# [22] = biological target: T1, Peroxisome proliferator-activated receptor alpha (Rattus norvegicus); experiment: Agonist activity at PPARalpha in lipid loaded rat HII4E cells assessed as increase of ACOX gene expression at 500 uM after 24 hrs by qPCR analysis relative to control; format: cell-based
# [23] = biological target: T1, Peroxisome proliferator-activated receptor alpha (Rattus norvegicus); experiment: Agonist activity at PPARalpha in lipid loaded rat HII4E cells assessed as induction of fatty acid uptake at 100 to 500 uM after 24 hrs by flow cytometry analysis relative to control; format: cell-based
compound,measurement,setting,value
CC(C)(Sc1ccc(CCN(CCCCC2CCCCC2)C(=O)NC2CCCCC2)cc1)C(=O)O,Activity,[1],Active
N[C@@H](Cc1c[nH]c2ccccc12)C(=O)N[C@@H](CCC(=O)O)C(=O)O (H-Trp-Glu-OH),Activity,[2],Dose-dependent effect
same,Activity,[3],14%
same,Activity,[4],21%
same,Activity,[5],14%
same,Activity,[6],16%
same,Activity,[7],inactive
same,Activity,[8],inactive
same,Activity,[9],Dose-dependent effect
same,Activity,[10],Dose-dependent effect
same,Activity,[11],53%
same,Activity,[12],62%
same,EC50,[13],83.4 µM
same,Kd,[14],120 µM
same,fold change (FC),[15],1.8
same,fold change (FC),[16],1.9
same,fold change (FC),[17],1.6
same,fold change (FC),[18],1.7
same,fold change (FC),[19],1.4
same,fold change (FC),[20],1.5
same,fold change (FC),[21],1.6
same,fold change (FC),[22],1.4
same,fold change (FC),[23],1.2
